Assay results from ChEMBL document CHEMBL1201862, “PubChem BioAssay data set” (2004).
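Results reflect a 48-hour exposure of cells in 96-well plates to compound at five concentrations. Here, GI50 denotes the concentration required for 50% inhibition of growth.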 Active and inactive are the calls of the source. Rule as the data show it: active = GI50 up to about 1.1 µM and inactive = higher.

What was measured:
Test in all cases: NCI tumour cell line growth inhibition, 48 h
SR = system: SR
KM-20L2 = system: KM-20L2
RXF 393 = system: RXF 393
UO-31 = system: UO-31
K562 = system: K562
CCRF-CEM = system: CCRF-CEM
DMS-114 = system: DMS-114
SK-MEL-2 = system: SK-MEL-2
ACHN = system: ACHN
SNB-19 = system: SNB-19
HOP-62 = system: HOP-62
RPMI-8226 = system: RPMI-8226
SK-MEL-28 = system: SK-MEL-28
NCI-H522 = system: NCI-H522
SNB-78 = system: SNB-78
MOLT-4 = system: MOLT-4
NCI-H460 = system: NCI-H460
OVCAR-5 = system: OVCAR-5
SF-268 = system: SF-268
Malme-3M = system: Malme-3M
OVCAR-3 = system: OVCAR-3
SNB-75 = system: SNB-75
LXFL 529 = system: LXFL 529
M14 = system: M14
KM12 = system: KM12
SK-OV-3 = system: SK-OV-3
UACC-257 = system: UACC-257
SF-295 = system: SF-295
HL-60 = system: HL-60
U-251 = system: U-251
A498 = system: A498
UACC-62 = system: UACC-62
OVCAR-4 = system: OVCAR-4
HT-29 = system: HT-29
M19-MEL = system: M19-MEL
HOP-92 = system: HOP-92
IGROV-1 = system: IGROV-1
COLO 205 = system: COLO 205
NCI-H23 = system: NCI-H23
MCF7 = system: MCF7
HCT-116 = system: HCT-116
SF-539 = system: SF-539
SW-620 = system: SW-620
MDA-MB-435 = system: MDA-MB-435
BT-549 = system: BT-549
CAKI-1 = system: CAKI-1
SN12C = system: SN12C
DU-145 = system: DU-145
OVCAR-8 = system: OVCAR-8
Hs-578T = system: Hs-578T
MDA-MB-231 = system: MDA-MB-231
LOX IMVI = system: LOX IMVI
HCC 2998 = system: HCC 2998
EKVX = system: EKVX
MDA-N = system: MDA-N
SK-MEL-5 = system: SK-MEL-5
TK-10 = system: TK-10
HCT-15 = system: HCT-15
786-0 = system: 786-0
PC-3 = system: PC-3
T47D = system: T47D
NCI-H226 = system: NCI-H226
NCI/ADR-RES = system: NCI/ADR-RES
A549 = system: A549

CCO[C@@H]1OC(=O)[C@@](C)(C(C)=O)[C@@H]1C
GI50 (SR): 25.5 µM (inactive) | GI50 (KM-20L2): 41.4 µM (inactive) | GI50 (RXF 393): 24.1 µM (inactive) | GI50 (UO-31): 37.9 µM (inactive) | GI50 (K562): 30.5 µM (inactive) | GI50 (CCRF-CEM): 13 µM (inactive) | GI50 (DMS-114): 19.1 µM (inactive) | GI50 (SK-MEL-2): 20.4 µM (inactive) | GI50 (ACHN): > 100 µM (inactive) | GI50 (SNB-19): 19.1 µM (inactive) | GI50 (HOP-62): 20.8 µM (inactive) | GI50 (RPMI-8226): 18.7 µM (inactive) | GI50 (SK-MEL-28): 15.7 µM (inactive) | GI50 (NCI-H522): > 100 µM (inactive) | GI50 (SNB-78): 25 µM (inactive) | GI50 (MOLT-4): 19.2 µM (inactive) | GI50 (NCI-H460): > 100 µM (inactive) | GI50 (OVCAR-5): 60 µM (inactive) | GI50 (SF-268): 18.3 µM (inactive) | GI50 (Malme-3M): 23.3 µM (inactive) | GI50 (OVCAR-3): 14.4 µM (inactive) | GI50 (SNB-75): 3.27 µM (inactive) | GI50 (LXFL 529): 19.5 µM (inactive) | GI50 (M14): 26 µM (inactive) | GI50 (KM12): 28.4 µM (inactive) | GI50 (SK-OV-3): 43.6 µM (inactive) | GI50 (UACC-257): 24.4 µM (inactive) | GI50 (SF-295): 20.1 µM (inactive) | GI50 (HL-60): 23 µM (inactive) | GI50 (U-251): 21 µM (inactive) | GI50 (A498): > 100 µM (inactive) | GI50 (UACC-62): 20.9 µM (inactive) | GI50 (OVCAR-4): 29 µM (inactive) | GI50 (HT-29): 17.5 µM (inactive) | GI50 (M19-MEL): 19.1 µM (inactive) | GI50 (HOP-92): 26.1 µM (inactive) | GI50 (IGROV-1): 36.5 µM (inactive) | GI50 (COLO 205): 87.7 µM (inactive) | GI50 (NCI-H23): 14.5 µM (inactive)

O=CC(I)=C(c1ccccc1)c1ccccc1
GI50 (SR): 6.92 µM (inactive) | GI50 (MCF7): 16.3 µM (inactive) | GI50 (HCT-116): 14.2 µM (inactive) | GI50 (SF-539): 23.2 µM (inactive) | GI50 (RXF 393): 15.1 µM (inactive) | GI50 (UO-31): 14.3 µM (inactive) | GI50 (K562): 18.5 µM (inactive) | GI50 (CCRF-CEM): 15.3 µM (inactive) | GI50 (SW-620): 8.47 µM (inactive) | GI50 (SK-MEL-2): 16.9 µM (inactive) | GI50 (ACHN): 20.7 µM (inactive) | GI50 (MDA-MB-435): 17 µM (inactive) | GI50 (SNB-19): 15.7 µM (inactive) | GI50 (HOP-62): 18.1 µM (inactive) | GI50 (RPMI-8226): 8.51 µM (inactive) | GI50 (BT-549): 15.1 µM (inactive) | GI50 (CAKI-1): 16.2 µM (inactive) | GI50 (SK-MEL-28): 17.2 µM (inactive) | GI50 (SN12C): 20.7 µM (inactive) | GI50 (NCI-H522): 16.2 µM (inactive) | GI50 (DU-145): 15.2 µM (inactive) | GI50 (MOLT-4): 11.3 µM (inactive) | GI50 (NCI-H460): 17.5 µM (inactive) | GI50 (OVCAR-5): 21.8 µM (inactive) | GI50 (OVCAR-8): 21.7 µM (inactive) | GI50 (SF-268): 21.3 µM (inactive) | GI50 (Hs-578T): 24.5 µM (inactive) | GI50 (MDA-MB-231): 14.6 µM (inactive) | GI50 (LOX IMVI): 9.51 µM (inactive) | GI50 (HCC 2998): 19.7 µM (inactive) | GI50 (Malme-3M): 16.2 µM (inactive) | GI50 (EKVX): 18.9 µM (inactive) | GI50 (OVCAR-3): 13.2 µM (inactive) | GI50 (SNB-75): 17.1 µM (inactive) | GI50 (MDA-N): 17 µM (inactive) | GI50 (SK-MEL-5): 17.3 µM (inactive) | GI50 (M14): 18.5 µM (inactive) | GI50 (KM12): 15 µM (inactive) | GI50 (SK-OV-3): 13.6 µM (inactive) | GI50 (TK-10): 19.5 µM (inactive) | GI50 (HCT-15): 14.1 µM | GI50 (786-0): 14.8 µM (inactive) | GI50 (PC-3): 15.2 µM (inactive) | GI50 (UACC-257): 20.4 µM (inactive) | GI50 (SF-295): 17.3 µM (inactive) | GI50 (HL-60): 6.5 µM (inactive) | GI50 (U-251): 15.1 µM (inactive) | GI50 (A498): 20.7 µM (inactive) | GI50 (UACC-62): 16.5 µM (inactive) | GI50 (OVCAR-4): 13.4 µM (inactive) | GI50 (HT-29): 14 µM (inactive) | GI50 (T47D): 13.3 µM (inactive) | GI50 (HOP-92): 18.9 µM (inactive) | GI50 (IGROV-1): 19.2 µM (inactive) | GI50 (NCI-H226): 23.8 µM (inactive) | GI50 (COLO 205): 18.3 µM (inactive) | GI50 (NCI-H23): 19.6 µM (inactive) | GI50 (NCI/ADR-RES): 20 µM (inactive) | GI50 (A549): 19.5 µM (inactive)
